Experimental data from ChEMBL document CHEMBL1201862, “PubChem BioAssay data set” (2004).
Active and inactive are the calls of the source. Cut-off read from the data, not from the text of the source: actives have a measured IC50 and inactives only a lower limit.

Molecular target: Envelope glycoprotein gp160 (Human immunodeficiency virus 1, UniProt Q6QLK5)
Test: cell-free HIV fusion peptide-binding blockers – biochemical, uHTS, fluorescence dequenching, […] (AID 1986)

Envelope glycoprotein gp160, sequence (Q6QLK5 whole entry, the tested form may be a part): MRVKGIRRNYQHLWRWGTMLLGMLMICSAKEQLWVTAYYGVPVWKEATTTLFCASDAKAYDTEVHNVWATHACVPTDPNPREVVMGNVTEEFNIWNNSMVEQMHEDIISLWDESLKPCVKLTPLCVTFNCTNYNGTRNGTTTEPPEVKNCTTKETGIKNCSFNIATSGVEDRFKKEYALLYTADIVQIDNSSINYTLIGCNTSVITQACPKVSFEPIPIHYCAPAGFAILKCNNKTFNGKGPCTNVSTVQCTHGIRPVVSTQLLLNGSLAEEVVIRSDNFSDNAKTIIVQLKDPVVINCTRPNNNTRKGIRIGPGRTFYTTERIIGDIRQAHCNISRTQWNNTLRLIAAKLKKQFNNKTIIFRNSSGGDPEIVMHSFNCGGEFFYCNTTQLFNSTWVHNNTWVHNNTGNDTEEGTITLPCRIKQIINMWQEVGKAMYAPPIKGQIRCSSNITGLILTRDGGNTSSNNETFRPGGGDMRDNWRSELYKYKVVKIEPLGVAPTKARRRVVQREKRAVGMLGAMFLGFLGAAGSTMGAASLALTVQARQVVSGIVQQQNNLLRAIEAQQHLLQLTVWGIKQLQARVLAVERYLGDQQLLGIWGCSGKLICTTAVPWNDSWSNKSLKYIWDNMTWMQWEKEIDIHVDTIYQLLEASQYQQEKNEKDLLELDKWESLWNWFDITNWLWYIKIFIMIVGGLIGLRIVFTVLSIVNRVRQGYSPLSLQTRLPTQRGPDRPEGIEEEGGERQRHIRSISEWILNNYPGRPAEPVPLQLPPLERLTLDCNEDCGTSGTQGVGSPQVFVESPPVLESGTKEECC

SMILES | IC50
N#Cc1c(-c2ccccc2)nc(SCc2cccc(C(F)(F)F)c2)[nH]c1=O | 10.4 µM (active)
O=[N+]([O-])c1cc(Cl)cc(/C=N/NC(=S)Nc2cc(S(=O)(=O)N3CCOCC3)ccc2Cl)c1O | 9.41 µM (active)
